From patent US20060270591A1, “Androgen receptor coregulators” (priority 2002, published 2006)

Key:
AR [1] = assay: AR transactivation reporter assay (CAT/luciferase) (Example 3); format: cell-based, human
Procedure: 21. […] Further adding GAL-DBD (lane 1 and 2) or GAL-DBD-ARA70N with wild type (lane 3 and 4) or mutant (lane 5-8) FXXLF motifs to the cells. (B) Effect of wild type and mutant FXXLF motifs ARA70N on AR transactivation in COS-1 cells. […] 0.5 ng SV40-Renila Luciferase was used as an internal control. Relative luciferase activity was calculated by dual luciferase system.
411. Human prostate cancer DU145 and PC-3 cells were maintained in Dulbecco's Minimum Essential Medium (DMEM) containing penicillin (25 U/ml), streptomycin (25 μg/ml), and 5% fetal calf serum (FCS). Human LNCaP cells were maintained in RPMI containing penicillin (25 U/ml), streptomycin (25 μg/ml), and 10% FCS. Transfections were performed using the calcium phosphate precipitation method, as previously described (Dynlacht et al. (1991) Cell 66, 563-576). Briefly, 4×10^5 cells were plated on 60-mm dishes 24 hours before transfection, and the medium was changed to DMEM with 5% charcoal-dextran stripped FCS (CS-FBS) one hour before transfection. Transfection medium contained a constant amount of reporter plasmid and indicated amounts of pSG5-receptor, ARA70, or pCMX-GAL fusion construct using pSG5 as a carrier to provide equal amounts of transfected DNA. […] After another 24 hours, the cells were harvested for chloramphenicol transferase (CAT) or luciferase assays. At least three independent experiments were carried out in each case. Superfect (Qiagen) was used for transfection in LNCaP cells. The transfection conditions followed the manufacturer's protocol. Cell extracts were prepared and assayed for CAT or luciferase activity (Promega) and normalized against β-galactosidase or Renilla luciferase activity as indicated. All data were the mean±SD results from three to six independent experiments.
Target sequence in this assay (P10275 whole entry): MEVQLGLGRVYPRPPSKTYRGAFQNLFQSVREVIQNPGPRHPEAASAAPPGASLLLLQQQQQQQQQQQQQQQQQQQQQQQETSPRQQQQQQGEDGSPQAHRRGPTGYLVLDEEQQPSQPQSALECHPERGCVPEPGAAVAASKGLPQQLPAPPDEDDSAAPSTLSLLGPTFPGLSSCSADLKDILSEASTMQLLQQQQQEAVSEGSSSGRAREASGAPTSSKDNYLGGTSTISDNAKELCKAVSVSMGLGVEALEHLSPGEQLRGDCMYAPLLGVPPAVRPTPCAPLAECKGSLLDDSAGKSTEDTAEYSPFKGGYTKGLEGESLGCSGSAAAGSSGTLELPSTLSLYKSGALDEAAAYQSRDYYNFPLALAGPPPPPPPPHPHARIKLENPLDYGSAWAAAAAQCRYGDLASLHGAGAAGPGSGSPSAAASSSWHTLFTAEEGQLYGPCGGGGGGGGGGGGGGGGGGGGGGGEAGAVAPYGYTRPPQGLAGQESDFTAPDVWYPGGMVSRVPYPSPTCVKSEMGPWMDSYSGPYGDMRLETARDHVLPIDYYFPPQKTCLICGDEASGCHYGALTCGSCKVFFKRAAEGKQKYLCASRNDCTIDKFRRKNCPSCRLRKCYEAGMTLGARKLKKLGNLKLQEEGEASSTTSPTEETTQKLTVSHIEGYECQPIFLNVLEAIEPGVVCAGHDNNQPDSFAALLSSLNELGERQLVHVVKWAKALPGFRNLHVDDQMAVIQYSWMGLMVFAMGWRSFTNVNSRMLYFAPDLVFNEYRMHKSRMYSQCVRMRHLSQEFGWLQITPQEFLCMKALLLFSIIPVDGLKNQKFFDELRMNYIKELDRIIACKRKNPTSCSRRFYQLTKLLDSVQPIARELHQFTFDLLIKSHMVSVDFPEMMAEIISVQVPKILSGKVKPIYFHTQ

AR [2] = assay: AR transactivation assay, MMTV-CAT reporter, transient transfection (Example 1); format: cell-based, human; conditions: DU145 cells; wild type AR; 1 nM DHT
Procedure: Human prostate cancer DU145 or PC3 cells, or human lung carcinoma cells NCI H1299 were grown in Dulbecco's minimal essential medium (DMEM) containing penicillin (25 U/ml), streptomycin (25˜g/ml), and 5% fetal calf serum (FCS). One hour before transfection, the medium was changed to DMEM with 5% charcoal-stripped FCS. […] A β-galactosidase expression plasmid, pCMV-β-gal, was used as an internal control for transfection efficiency.
The medium was changed 24 hr posttransfection and the cells treated with either steroid hormones or hydroxyflutamide, and cultured for an additional 24 hr. Cells were harvested and assayed for CAT activity after the cell lysates were normalized by using β-galactosidaseas an internal control. Chloramphenicol acetyltransferase (CA) activity was visualized by PhosphorImager (Molecular Dynamics) and quantitated by ImageQuant software (Molecular Dynamics).
Target sequence in this assay (P10275 whole entry): as above

AR [3] = conditions: CV-1 cells; reported by others; cited from earlier work
Target sequence in this assay (P10275 whole entry): as above

AR [4] = assay: Immunocytofluorescence, semi-quantitative nuclear AR staining in COS-1 cells; format: cell-based; conditions: 10 nM DHT, p<0.0005
Procedure: 415. COS-1 cells were seeded on two-well Labtek II slides (Nalge) 24 hours before transfection. Two micrograms of DNA per 10^5 cell was transfected with the AR, with or without full length ARA70 (ARA70-FL) using FuGENE6 transfection reagent (Roche). […] Immunostaining was performed by incubation with anti-AR polyclonal antibody (NH27) or anti-ARA70 mouse monoclonal antibody (CC70), followed by incubation with either fluorescence-conjugated goat anti-rabbit or anti-mouse antibodies (ICN). The red signal represents the AR and the green signal represents ARA70.
416. Three hundred cells with normal morphologies and clear AR nuclear translocation were scored for AR staining using a fluorescence microscope. Cells were scored on a scale of one to five, with one representing the lowest AR staining intensity above the background level. The cells were then separated into two groups based on the presence or absence of ARA70.
417. The mean AR staining intensity and standard deviation were then calculated for the ARA70 negative and positive populations. Using […], a two sample t-test (assuming unequal variances) was then performed to determine if the difference in the mean AR staining intensities in the two populations was statistically significant (α=0.05).
Target sequence in this assay (P10275 with tags, fused parts or gaps DEL79-80/DUP473-473): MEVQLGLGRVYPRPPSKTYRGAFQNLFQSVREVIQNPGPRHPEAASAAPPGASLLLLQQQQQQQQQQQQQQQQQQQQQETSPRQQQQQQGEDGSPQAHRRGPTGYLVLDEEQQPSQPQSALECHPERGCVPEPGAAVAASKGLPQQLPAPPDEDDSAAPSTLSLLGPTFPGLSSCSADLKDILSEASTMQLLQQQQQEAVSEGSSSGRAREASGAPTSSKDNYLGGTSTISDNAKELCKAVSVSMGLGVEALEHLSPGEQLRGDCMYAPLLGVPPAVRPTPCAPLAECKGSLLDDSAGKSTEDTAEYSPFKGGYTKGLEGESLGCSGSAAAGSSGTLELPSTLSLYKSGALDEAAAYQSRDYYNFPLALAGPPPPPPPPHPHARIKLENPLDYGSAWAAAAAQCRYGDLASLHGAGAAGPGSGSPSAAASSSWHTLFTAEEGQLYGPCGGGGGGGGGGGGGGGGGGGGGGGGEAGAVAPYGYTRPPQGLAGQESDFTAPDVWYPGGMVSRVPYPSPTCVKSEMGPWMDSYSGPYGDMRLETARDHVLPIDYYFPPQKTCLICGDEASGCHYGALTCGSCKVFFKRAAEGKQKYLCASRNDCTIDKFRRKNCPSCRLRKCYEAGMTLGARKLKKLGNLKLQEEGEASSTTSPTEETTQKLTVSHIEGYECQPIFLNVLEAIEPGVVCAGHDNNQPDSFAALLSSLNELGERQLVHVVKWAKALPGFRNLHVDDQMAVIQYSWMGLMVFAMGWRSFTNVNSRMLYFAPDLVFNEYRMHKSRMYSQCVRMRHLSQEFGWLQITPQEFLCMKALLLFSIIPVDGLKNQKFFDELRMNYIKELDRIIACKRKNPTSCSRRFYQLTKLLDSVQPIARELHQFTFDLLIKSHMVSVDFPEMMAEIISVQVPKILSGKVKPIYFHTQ

AR [5] = assay: AR transactivation dual-luciferase assay with supervillin (Example 6); format: cell-based, human
Procedure: In AR transactivation activity assays, transfections were performed using SuperFect (Qiagen, Chatsworth, Calif.) following protocols described in manual provided by Qiagen. Briefly, cells were plated on 35 mm dishes and after 24 h were transfected using the SuperFect kit. The total DNA amount was adjusted to 2 μg with pSG5 or pEGFP vectors. The medium was changed to DMEM with 10% CD-FBS 2 h after transfection. After 24 h, the DMEM with 10% CD-FBS was changed again, and the cells were treated with various steroids. Cells were harvested after 24 h for dual-luciferase assay as described in protocol provided by Promega. At least three independent experiments were carried out in each case.
Target sequence in this assay (P10275 with tags, fused parts or gaps DEL79-80/DUP473-473): as above

Substance	enhancement of AR transactivation (AR [1]; COS-1 cells) [fold]	enhancement of AR transactivation (AR [1]; CV-1 cells) [fold]	enhancement of AR transactivation (AR [1]; DU145 cells, depending on the ratio of AR to ARA70)	enhancement of AR transactivation (AR [1]; PC-3 cells) [fold]	AR transcription activity with cotransfected coactivator (AR [2]) [fold]	enhancement of AR activity (AR [3])	nuclear AR staining intensity (AR [4])	enhancement of AR transactivation (AR [5]; C2C12 muscle cells, bSV:AR plasmids 25:1 and 50:1, DHT)	AR transactivation with EGFP-bSV construct (AR [5]; COS-1 cells, 10 nM DHT, MMTV-Luc) [fold]	effect on Adiol induced AR transactivation (AR [5]; COS-1 cells, 10 nM steroid)	effect on E2- or HF-induced AR transactivation (AR [5]; COS-1 cells, 10 nM steroid)	effect on T and DHT induced AR transactivation (AR [5]; COS-1 cells, 10 nM steroid)
ARA70: ligand-enhanced AR coregulator, full length ARA70	8	8	8-10 fold	6	36	2-3 fold	significantly enhances nuclear AR staining intensity					
SV: supervillin, 205 kDa actin binding protein; bovine SV (a.a. 1-1792) used in reporter assays								3-8 fold	132	slightly enhances	marginal effect	significantly enhances
